From the supplement of paper PMC10307832

Legend:
Assay in all cases: relative viability (nuclei count vs DMSO), 5 days (fraction); higher = more cells survive
[1] = compound: CN1C=C(C2=CC=CC=C21)/C=C\3/C4=C(C=CC=N4)NC3=O + Cc1cc(Nc2cc(N3CCN(C)CC3)nc(Sc3ccc(NC(=O)C4CC4)cc3)n2)n[nH]1 [Tozasertib] (partner 0.1 µM)
Method in brief: (§1)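 Relative viability equals treated-well nuclei counts divided by vehicle-well nuclei counts. Counts came from 4× images of lung cancer cell lines grown in 1536-well plates for 5 days after pin-tool dosing on the day after seeding. Dosing used one drug alone or a fixed anchor-drug dose plus five library-drug doses (not always all listed) in √10 steps, and values are medians of duplicate plates.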

Trametinib + Pictilisib = compound: CC(=O)Nc1cccc(-n2c(=O)n(C3CC3)c(=O)c3c(Nc4ccc(I)cc4F)n(C)c(=O)c(C)c32)c1 [Trametinib] + CS(=O)(=O)N1CCN(Cc2cc3nc(-c4cccc5[nH]ncc45)nc(N4CCOCC4)c3s2)CC1 [Pictilisib] (partner 1 µM)
Method in brief: as §1

Trametinib + Olaparib = compound: CC(=O)Nc1cccc(-n2c(=O)n(C3CC3)c(=O)c3c(Nc4ccc(I)cc4F)n(C)c(=O)c(C)c32)c1 [Trametinib] + O=C(c1cc(Cc2n[nH]c(=O)c3ccccc23)ccc1F)N1CCN(C(=O)C2CC2)CC1 [Olaparib] (partner 8 µM)
Method in brief: as §1

[2] = compound: CN1C=C(C2=CC=CC=C21)/C=C\3/C4=C(C=CC=N4)NC3=O + CS(=O)(=O)N1CCN(Cc2cc3nc(-c4cccc5[nH]ncc45)nc(N4CCOCC4)c3s2)CC1 [Pictilisib] (partner 1 µM)
Method in brief: as §1

| Cell Line | relative viability ([1]; first compound 0.02 µM) | relative viability ([1]; first compound 0.06325 µM) | relative viability ([1]; first compound 0.2 µM) | relative viability ([1]; first compound 0.6325 µM) | relative viability ([1]; first compound 2 µM) | relative viability (Trametinib + Pictilisib; first compound 0.0025 µM) | relative viability (Trametinib + Pictilisib; first compound 0.007906 µM) | relative viability (Trametinib + Pictilisib; first compound 0.025 µM) | relative viability (Trametinib + Pictilisib; first compound 0.07906 µM) | relative viability (Trametinib + Pictilisib; first compound 0.25 µM) | relative viability (Trametinib + Olaparib; first compound 0.0025 µM) | relative viability (Trametinib + Olaparib; first compound 0.007906 µM) | relative viability (Trametinib + Olaparib; first compound 0.025 µM) | relative viability (Trametinib + Olaparib; first compound 0.07906 µM) | relative viability (Trametinib + Olaparib; first compound 0.25 µM) | relative viability ([2]; first compound 0.02 µM) | relative viability ([2]; first compound 0.06325 µM) | relative viability ([2]; first compound 0.2 µM) | relative viability ([2]; first compound 0.6325 µM) | relative viability ([2]; first compound 2 µM) |
| --- | --- | --- | --- | --- | --- | --- | --- | --- | --- | --- | --- | --- | --- | --- | --- | --- | --- | --- | --- | --- |
| SK-LU-1 | 0.23 | 0.244 | 0.316 | 0.287 | 0.316 | 0.535 | 0.399 | 0.251 | 0.278 | 0.256 | 0.429 | 0.364 | 0.406 | 0.311 | 0.274 | 0.425 | 0.544 | 0.63 | 0.472 | 0.543 |
| NCI-H838 | 0.264 | 0.223 | 0.259 | 0.294 | 0.257 | 0.351 | 0.415 |  | 0.319 | 0.281 | 0.703 | 0.675 | 0.622 | 0.674 | 0.587 | 0.311 | 0.351 | 0.464 | 0.4 | 0.381 |
| NCI-H1755 | 0.56 | 0.557 | 0.605 | 0.502 | 0.509 | 0.396 | 0.348 | 0.248 | 0.331 | 0.228 | 0.849 | 0.826 | 0.804 | 0.807 | 0.742 | 0.405 | 0.342 | 0.302 | 0.365 | 0.37 |
| NCI-H2228 | 0.15 | 0.223 |  |  | 0.192 | 0.281 | 0.232 | 0.184 | 0.171 | 0.199 | 0.691 | 0.541 | 0.641 | 0.422 | 0.224 | 0.378 | 0.371 |  | 0.327 | 0.27 |
| NCI-H1915 | 0.385 | 0.432 | 0.482 | 0.424 | 0.484 | 0.963 | 0.466 | 0.317 | 0.287 | 0.24 | 0.266 | 0.21 | 0.198 | 0.168 | 0.144 | 0.973 | 0.871 | 0.831 | 0.961 | 0.97 |
| NCI-H2347 |  | 0.421 | 0.556 | 0.512 | 0.681 | 0.452 | 0.301 | 0.221 | 0.229 | 0.272 | 0.535 | 0.383 | 0.372 | 0.321 | 0.316 | 0.527 | 0.704 | 0.572 | 0.438 | 0.658 |
| HARA | 0.0897 | 0.112 |  | 0.0723 | 0.0941 | 0.384 | 0.342 | 0.131 | 0.207 | 0.213 | 0.696 | 0.832 | 0.664 | 0.449 | 0.308 | 0.55 | 0.391 | 0.407 | 0.254 | 0.379 |
| NCI-H2085 | 0.803 | 0.734 | 0.797 | 0.622 | 0.575 | 0.412 | 0.353 | 0.418 | 0.327 | 0.32 | 0.766 | 0.659 | 0.558 | 0.638 | 0.615 | 0.307 | 0.427 | 0.39 | 0.458 | 0.534 |
